Results from patent US6624140B1, “Synthetic peptides with antimicrobial and endotoxin neutralizing properties for management of the sepsis syndrome” (Academisch Ziekenhuis Bij de Universiteit van Amsterdam …, priority 1997, dated 2003).
No end group written: not given here.

How the values were obtained:
[1] = ELISA binding to immobilized endotoxins of increasing complexity, effect of plasma; parameters: species or system Escherichia coli
Method: FIG. 4. Effect of endotoxin complexity and plasma concentration on the binding of synthetic peptide BP2 of the invention to immobilized LPS. Coated ELISA microtiter plates containing E.coli D31m4 Lipid A, Re, J5 or 0111:B4 LPS were incubated with synthetic peptide at a concentration of 40 ng/ml in the presence of plasma at dilutions to 10% (v/v). Binding activity was determined by the ELISA microplate lipid A binding assay as previously described.
Double-immunodiffusion of the peptides of the invention against ‘rough’ R-type E. coli D31m4 Re-LPS (List Biological Laboratories Inc., Calif.) or the structurally more complex ‘smooth’ S-type E. coli 0111:B4 LPS (Sigma Chemical Co., Rockford, Ill.) was performed in 0.8% (w/v) agarose containing 50 mM Tris and 0.1% (w/v) Triton X100, pH 7.5. for 16 h at 20° C. PmB and BPI(85-102) were included as control compounds for comparative purposes. The microprecipitates formed were visualized by Coommassie brilliant blue staining. […] Since the amount of precipitate formed is a function of valency, the peptides of the invention appear to be capable of a high degree of intermolecular binding of LPS molecules via the Lipid A moieties. […] The degree of precipitation of endotoxin by the synthetic peptides according to the invention was determined by measurement of the optical density of insoluble complexes formed at 340 nm (FIG. 2). […]

[2] = test system: Escherichia coli strain 018:K1:H7 Bort; test: Murine model of lethal peritonitis; type: in vivo, mice; conditions: at 7 days; 100 μg/mouse (4 mg/kg) 1 h after 10^4 CFU i.p.; two experiments combined
Method: FIG. 14. Efficacy of synthetic peptide BP2 on survival in a murine model of lethal peritonitis. Outbred female Swiss-Webster mice of 7 to 8 weeks, weighing 28 to 30 g were administered a predetermined lethal dose of 104 colony forming units (CFU) of the pathogenic strain of live E. coli […] Bort organisms by intraperitoneal (i.p.) administration in 0.5 ml pyrogen-free saline. After a delay of 1 h after infection, treated groups of mice received synthetic BP2 peptide in p.f saline at a dosage of 100 μg/mouse (approximately 4 mg/kg) and negative control groups only saline. Survival was recorded at 12 or 24 h intervals during a 7 day period of observation. […]
The efficacy of the peptides of the invention in the protection of experimental animals against the toxic effects of LPS or live pathogenic bacteria was investigated with the use of murine models of lethal endotoxemia and peritonitis Laboratory mice, which are normally tolerant to high doses of endotoxin and require a lethal dose (LD100) of approximately 1 mg, may be sensitized with Actinomycin D to 10,000×lower amounts of endotoxin for lethality. […] The survival of the treated animals was recorded at 24 h intervals during a seven day period of observation and compared with the control groups. […] The survival of the animals was recorded at 12 or 24 h intervals during a 7 day period of observation and compared with the control groups. […]

[3] = Double-immunodiffusion against 0111:B4 LPS; type: binding, Escherichia coli; conditions: 0.8% agarose, 16 h at 20° C.; data not shown
Method: Double-immunodiffusion of the peptides of the invention against ‘rough’ R-type E. coli D31m4 Re-LPS (List Biological Laboratories Inc., Calif.) or the structurally more complex ‘smooth’ S-type E. coli 0111:B4 LPS (Sigma Chemical Co., Rockford, Ill.) was performed in 0.8% (w/v) agarose containing 50 mM Tris and 0.1% (w/v) Triton X100, pH 7.5. for 16 h at 20° C. PmB and BPI(85-102) were included as control compounds for comparative purposes. The microprecipitates formed were visualized by Coommassie brilliant blue staining. […] Since the amount of precipitate formed is a function of valency, the peptides of the invention appear to be capable of a high degree of intermolecular binding of LPS molecules via the Lipid A moieties. […] The degree of precipitation of endotoxin by the synthetic peptides according to the invention was determined by measurement of the optical density of insoluble complexes formed at 340 nm (FIG. 2). […] Binding characteristics of biotinylated derivatives of the synthetic peptides BP1, BP2, BP2.1 and the control peptide BPI(85-102) were determined on ELISA microtiter plates coated with E. coli D31m4 Lipid A. Specific binding of the biotinylated peptides to the immobilized Lipid A was determined by development with Streptavidin-HRP and 3, 5, 3′, 5′ tetra-methylbenzidine (TMB) substrate and expressed as the corrected optical density at 450 nm. […]

GKWKLFKKAFKKFLKILAC-OH [BP2, Gly-Lys-Trp-Lys-Leu-Phe-Lys-Lys-Ala-Phe-Lys-Lys-Phe-Leu-Lys-Ile-Leu-Ala-Cys]
degree of binding versus complexity of immobilized LPS ([1]; peptide 40 ng/ml): decreases with increasing complexity of immobilized LPS
effect of plasma on binding to endotoxins ([1]; up to 5% (v/v) heat-treated, clarified plasma): no significant effect
survival [2]: 78.5%

Ile-Lys-Ile-Ser-Gly-Lys-Trp-Lys-Ala-Gin-Lys-Arg-Phe-Leu-Lys-Met-Ser-Gly-(Cys) (IKISGKWKAQKRFLKMSGC; listed as Homo sapiens) [BPI(85-102), reference compound]
precipitation of 0111 LPS [3]: considerably less
